# Assays:
# human PDE2A1 = human PDE2A1 (Homo sapiens (Human), UniProt O00408); test: PDE2A inhibition, PDE IMAP TR-FRET assay; assay type: biochemical; settings: FAM-cAMP substrate
# Procedure: Purified human PDE2A1 and PDE10A2 enzymes were obtained from BPS Bioscience (San Diego, Calif.). IMAP™ TR-FRET progressive binding system, FAM-cAMP substrate were from Molecular Devices (Sunnyvale, Calif.).
# The PDE IMAP assay was conducted in a 384-well black Greiner polypropylene plate (Sigma, St. Louis, Mo.). PDE inhibitors were serial diluted in 100% DMSO and dispensed into assay plate at […] per well using Echo® Liquid Handling System from LABCYTE. Ten μL of PDE enzyme in IMAP reaction buffer (10 mM Tris-HCl, pH 7.2, 10 mM MgCl2, 0.05% NaN3, and 0.01% Tween-20) was added into the assay wells. The PDE enzyme concentration used was based on each lot of enzyme activity, to ensure enzyme reaction falls in a linear range under assay condition. 1.4 nM of PDE2 or […] PDE10 were used in the assay system. Enzyme was pre-incubated with inhibitors for 60 minutes at room temperature before addition of 10 uL of substrate addition, which results in 100 nM of FAM-cAMP in the reaction. Enzyme reaction was allowed to proceed at room temperature for 90 min, and the reaction is stopped by 55 μl addition of binding reagent according to manufacturer's recommendation. The mixture is further incubated at room temperature for additional 4 hours, and signal was read on an Envision multimode reader (PerkinElmer). Fluorescence signals were measured at 520 nm and 485 nm. The signal ratio at 520/485 nm corresponded to the generation of reaction product of AMP, and it was used in all data analysis. Values from DMSO-treated wells were normalized to POC=100, and no-enzyme wells were normalized to POC=0. IC50 values were determined by using the Genedata Screener V9.0.1. The curve fitting algorithm used for dose response data analysis in Genedata Screener is a custom implementation of a robust curve-fitting algorithm called ROUT (Robust regression with outlier detection) and uses a four-parameter logistical (4 PL) Hill model.
# PDE10 = PDE10 (Rattus norvegicus (Rat), UniProt Q9QYJ6); test: PDE10 ex vivo receptor occupancy (RO) screening in rat striatum; settings: oral, 10 mpk, 1 h (footnote A)
# Chain of PDE10 (Q9QYJ6 whole entry): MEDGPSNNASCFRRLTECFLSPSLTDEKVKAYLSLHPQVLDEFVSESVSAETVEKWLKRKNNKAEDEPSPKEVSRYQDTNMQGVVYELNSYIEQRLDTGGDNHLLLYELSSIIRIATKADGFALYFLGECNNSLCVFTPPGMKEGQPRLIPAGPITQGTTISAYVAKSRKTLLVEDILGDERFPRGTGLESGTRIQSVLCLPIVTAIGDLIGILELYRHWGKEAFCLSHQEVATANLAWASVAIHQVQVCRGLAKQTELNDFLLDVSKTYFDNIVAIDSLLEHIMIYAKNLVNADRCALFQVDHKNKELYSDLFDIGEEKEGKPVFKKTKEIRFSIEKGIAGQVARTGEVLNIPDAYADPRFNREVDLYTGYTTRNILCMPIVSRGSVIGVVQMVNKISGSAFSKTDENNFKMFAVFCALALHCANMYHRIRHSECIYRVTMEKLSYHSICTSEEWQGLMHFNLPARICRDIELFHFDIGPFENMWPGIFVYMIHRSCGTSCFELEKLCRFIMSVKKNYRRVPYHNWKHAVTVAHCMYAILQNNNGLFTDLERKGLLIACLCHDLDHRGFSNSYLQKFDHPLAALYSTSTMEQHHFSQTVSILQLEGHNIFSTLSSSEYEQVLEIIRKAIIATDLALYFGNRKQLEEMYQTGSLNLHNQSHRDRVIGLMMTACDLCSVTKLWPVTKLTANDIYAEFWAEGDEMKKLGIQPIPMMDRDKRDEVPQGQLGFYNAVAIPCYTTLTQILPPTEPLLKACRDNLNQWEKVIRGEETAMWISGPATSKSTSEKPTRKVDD
# Procedure: The ex vivo screening protocol was approved by Amgen's Institutional Animal Care and Use Committee (IACUC) and in accordance with the National Institutes of Health Guide for Care and Use of Laboratory Animals in facilities accredited by the Association for the Assessment and Accreditation of Laboratory Animal Care (AALAC).
# PDE10 inhibitors were dissolved in 2% Hydroxypropylmethylcellulose (HPMC), 1% Tween-80, pH 2.2 with methanesulfonic acid. Male Sprague Dawley® rats weighing 180-225 g (4 per group) were dosed orally with either vehicle or PDE10 inhibitors (3 mg/kg or 10 mg/kg) and then returned to their home cage to allow for absorption of the compounds. After one hour (with 10 mg/kg PDE10 inhibitor) or four hours (with 3 mg/kg or 10 mg/kg PDE10 inhibitor) rats were sacrificed by CO2 inhalation. Blood was obtained by heart puncture and plasma was frozen and stored at −80° C. for exposure analysis. Brains were removed and immediately frozen in chilled methylbutane, and stored at −80° C. until cutting. Three coronal brain slices per brain containing the striatum were cut at […] using a cryostat and placed onto microscope slides, air-dried and stored at −20° C. For radioligand binding experiments, slides were thawed at room temperature and then incubated with 1 nM a tritium labeled tracer compound (insert citation) in binding buffer (150 mM Phosphate-buffered saline containing 2 mM MgCl2 and 100 mM DTT, pH 7.4) for 1 minute at 4° C. To assess non-specific binding, slides containing adjacent brain sections were incubated in the same solution with addition of […] of an unlabelled, structurally unrelated PDE10 antagonist. Afterwards slides were washed 3 times in ice-cold binding buffer, dipped into distilled water to remove buffer salts, and dried under a stream of cold air. Emission of beta particles from the sections was counted for 8 hours in a Beta Imager 2000 (Biospace, Paris, France) and digitized and analyzed using M3 Vision software (Biospace, Paris, France). Total binding radioactivity in the striatum was measured as cpm/mm^2 in hand-drawn regions of interest and averaged across the three sections per brain. Non-specific binding was subtracted to obtain specific binding values and percent occupancy was calculated by setting vehicle specific binding as 0% occupancy.
# Chain of human PDE2A1 (O00408 other isoform, or with tags, fused parts or gaps): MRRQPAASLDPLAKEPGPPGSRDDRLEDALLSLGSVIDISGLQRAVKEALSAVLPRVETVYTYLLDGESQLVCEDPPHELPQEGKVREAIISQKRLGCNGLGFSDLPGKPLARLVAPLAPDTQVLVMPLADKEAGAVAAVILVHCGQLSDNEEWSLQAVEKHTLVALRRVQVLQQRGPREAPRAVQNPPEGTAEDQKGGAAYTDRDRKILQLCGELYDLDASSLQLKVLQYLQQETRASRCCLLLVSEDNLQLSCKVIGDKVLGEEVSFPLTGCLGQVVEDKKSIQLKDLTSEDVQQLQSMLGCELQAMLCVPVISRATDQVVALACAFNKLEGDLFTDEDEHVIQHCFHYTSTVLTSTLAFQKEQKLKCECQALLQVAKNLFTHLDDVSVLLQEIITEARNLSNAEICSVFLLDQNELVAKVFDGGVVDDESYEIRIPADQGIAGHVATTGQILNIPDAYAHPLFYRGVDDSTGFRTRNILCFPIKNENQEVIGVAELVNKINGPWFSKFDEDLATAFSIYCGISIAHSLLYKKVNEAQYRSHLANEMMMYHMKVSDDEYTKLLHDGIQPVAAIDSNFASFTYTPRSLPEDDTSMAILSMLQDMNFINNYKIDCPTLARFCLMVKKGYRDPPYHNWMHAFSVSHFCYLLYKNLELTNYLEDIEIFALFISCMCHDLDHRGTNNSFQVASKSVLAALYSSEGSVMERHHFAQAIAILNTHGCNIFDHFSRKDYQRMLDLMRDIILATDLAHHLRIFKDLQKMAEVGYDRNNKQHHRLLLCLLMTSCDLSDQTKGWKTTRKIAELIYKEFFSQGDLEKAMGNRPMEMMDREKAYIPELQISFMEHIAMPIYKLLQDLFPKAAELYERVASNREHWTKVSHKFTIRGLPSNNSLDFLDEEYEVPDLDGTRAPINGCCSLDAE
SMILES,IC50 (human PDE2A1),receptor occupancy at 10 mg/kg (PDE10)
"CNC(=O)c1cccc(-c2nccnc2C2CN(c3ccc4ccccc4n3)C2)c1 [Compound 17, N-methyl-3-(3-(1-(quinolin-2-yl)azetidin-3-yl)pyrazin-2-yl)benzamide, reference compound]",2.16 µM,72%
"NC(=O)c1ccc(-c2nccnc2C2CN(c3ccc4ccccc4n3)C2)cc1 [Compound 15, 4-(3-(1-(2-quinolinyl)-3-azetidinyl)-2-pyrazinyl)benzamide, reference compound]",10 µM,47.7%
"NC(=O)c1ccc(-c2nccnc2C2CN(c3ccc4ccccc4n3)C2)cc1F [Compound 16, 2-fluoro-4-(3-(1-(quinolin-2-yl)azetidin-3-yl)pyrazin-2-yl)benzamide, reference compound]",3.3 µM,52.3%
